Several values for one entry are separate records, joined by “and”; a condition that tells them apart may be missing. Identical values can stand only once. Toxic doses and inconclusive results are not listed. Rule for the calls: active = survival T/C of 150% or more; inactive = T/C below 125% in these data.
Test system: nude mice, LOX melanoma ip, survival T/C
Assay: NCI In Vivo Anticancer Drug Screen. Data for tumor model Human Amelanotic Melanoma (LOX) (intraperitoneal) in NU/NU BALB/C (nude) mice
Conditions: endpoint: median survival time, schedule: Q04DX003 (ip), higher = longer survival
Method: The antitumor activity of compounds was measured in mice bearing transplantable tumors. Survival or tumor size were measured and the results are expressed as the measurement made in the treated group (T) divided by the measurement made in the vehicle treated control group (C). The tumor model used in this assay is Human Amelanotic Melanoma (LOX) (intraperitoneal) in NU/NU BALB/C (nude) mice

[1] = dose: 75.0 mg/kg/injection, vehicle: saline with Tween-80
[2] = dose: 25.0 mg/kg/injection, vehicle: saline with Tween-80
[3] = dose: 50.0 mg/kg/injection, vehicle: saline with Tween-80
[4] = dose: 200.0 mg/kg/injection, vehicle: saline with Tween-80
[5] = dose: 12.5 mg/kg/injection, vehicle: saline with Tween-80
[6] = dose: 100.0 mg/kg/injection, vehicle: saline with Tween-80
[7] = dose: 15.0 mg/kg/injection, vehicle: Klucel (hydroxypropylcellulose) (HPC)
[8] = dose: 30.0 mg/kg/injection, vehicle: Klucel (hydroxypropylcellulose) (HPC)
[9] = dose: 60.0 mg/kg/injection, vehicle: Klucel (hydroxypropylcellulose) (HPC)
[10] = dose: 300.0 mg/kg/injection, vehicle: saline with Tween-80
[11] = dose: 600.0 mg/kg/injection, vehicle: saline with Tween-80
[12] = dose: 150.0 mg/kg/injection, vehicle: saline with Tween-80

Measured: T/C

CC[C@@]1(O)C(=O)OCc2c1cc1n(c2=O)Cc2cc3c(N)cccc3nc2-1
active: dose: 0.5 mg/kg/injection, vehicle: saline with Tween-80 213 % of control | dose: 0.86 mg/kg/injection, vehicle: saline with Tween-80 314 % of control | dose: 1.0 mg/kg/injection, vehicle: saline with Tween-80 327 % of control | dose: 1.44 mg/kg/injection, vehicle: saline with Tween-80 314 % of control | dose: 2.0 mg/kg/injection, vehicle: saline with Tween-80 327 % of control | dose: 2.4 mg/kg/injection, vehicle: saline with Tween-80 314 % of control | dose: 4.0 mg/kg/injection, vehicle: saline with Tween-80 314 % of control and 327 % of control

CCCCNP1(NCCCC)=NP(NCCCC)(NCCCC)=NP(NCCCC)(NCCCC)=NP(NCCCC)(NCCCC)=N1
inactive: dose: 32.4 mg/kg/injection, vehicle: saline with Tween-80 116 % of control | dose: 54.0 mg/kg/injection, vehicle: saline with Tween-80 105 % of control and 98 % of control | [1] 113 % of control | dose: 90.0 mg/kg/injection, vehicle: saline with Tween-80 105 % of control and 120 % of control

CCCCCC1c2cc(O)ccc2OC1N1CCOCC1 (stereo not drawn)
inactive: [2] 111 % of control | [3] 100 % of control | [4] 86 % of control

CN(C)CN1C(=O)S/C(=C2\C(=O)N(CN(C)C)c3ccccc32)C1=O
inactive: dose: 50.0 mg/kg/injection, vehicle: Klucel (hydroxypropylcellulose) (HPC) 119 % of control and 101 % of control | dose: 100.0 mg/kg/injection, vehicle: Klucel (hydroxypropylcellulose) (HPC) 110 % of control and 97 % of control | dose: 200.0 mg/kg/injection, vehicle: Klucel (hydroxypropylcellulose) (HPC) 108 % of control and 97 % of control

CC(=O)N(C)c1ccc(Nc2cc(C)[nH]c3ccc4ncnc4c23)cc1
inactive: [5] 102 % of control | dose: 36.0 mg/kg/injection, vehicle: saline 101 % of control | [3] 99 % of control | dose: 60.0 mg/kg/injection, vehicle: saline 110 % of control | [6] 91 % of control | dose: 100.0 mg/kg/injection, vehicle: saline 100 % of control | dose: 167.0 mg/kg/injection, vehicle: saline 94 % of control

O=C(C/C(=N\C(=S)Nc1cc(C(F)(F)F)ccc1Cl)NO)N1CCCC1
inactive: [3] 115 % of control | [6] 96 % of control | [4] 108 % of control

Nc1n[nH]c2ccccc12
inactive: dose: 75.0 mg/kg/injection, vehicle: other 107 % of control | dose: 150.0 mg/kg/injection, vehicle: other 98 % of control

CS(=O)(=O)CS(=O)(=O)OCCF
active: dose: 3.13 mg/kg/injection, vehicle: saline 152 % of control | dose: 6.25 mg/kg/injection, vehicle: saline 295 % of control | dose: 12.5 mg/kg/injection, vehicle: saline 295 % of control | dose: 25.0 mg/kg/injection, vehicle: saline 295 % of control | dose: 50.0 mg/kg/injection, vehicle: saline 295 % of control

O=S(=O)(c1cccc(N=C=S)c1)c1cccc(N=C=S)c1
inactive: [7] 91 % of control | [8] 95 % of control | [9] 107 % of control | dose: 120.0 mg/kg/injection, vehicle: Klucel (hydroxypropylcellulose) (HPC) 109 % of control

Nc1ccc2ccc(NS(=O)(=O)N3CCCCC3)cc2c1
active: [10] 154 % of control
inactive: [11] 96 % of control

CC(=O)Nc1ccc(Nc2ccc(C(=C3C=CC(=[N+](C)CCC#N)C=C3)c3ccc(N(C)CCC#N)cc3)cc2)cc1
inactive: dose: 6.25 mg/kg/injection, vehicle: suspension in saline 101 % of control | dose: 12.5 mg/kg/injection, vehicle: suspension in saline 111 % of control | dose: 25.0 mg/kg/injection, vehicle: suspension in saline 116 % of control | dose: 30.0 mg/kg/injection, vehicle: suspension in saline 120 % of control | dose: 50.0 mg/kg/injection, vehicle: suspension in saline 111 % of control and 121 % of control | dose: 83.0 mg/kg/injection, vehicle: suspension in saline 110 % of control | dose: 100.0 mg/kg/injection, vehicle: suspension in saline 124 % of control

NCc1cc(O)c(O)c(O)c1
inactive: dose: 75.0 mg/kg/injection, vehicle: saline 107 % of control | dose: 150.0 mg/kg/injection, vehicle: saline 101 % of control | dose: 600.0 mg/kg/injection, vehicle: saline 102 % of control

COc1cc(NCc2ccc3nc(N)nc(N)c3c2C)cc(OC)c1OC
inactive: [7] 118 % of control | [8] 118 % of control | [9] 123 % of control
active: dose: 7.5 mg/kg/injection, vehicle: Klucel (hydroxypropylcellulose) (HPC) 151 % of control

NC(=S=O)C(N)=S=O
inactive: dose: 62.5 mg/kg/injection, vehicle: saline with Tween-80 109 % of control | dose: 125.0 mg/kg/injection, vehicle: saline with Tween-80 105 % of control | dose: 250.0 mg/kg/injection, vehicle: saline with Tween-80 105 % of control | dose: 500.0 mg/kg/injection, vehicle: saline with Tween-80 105 % of control

O=c1cc(-c2ccccc2)[nH]c2c1CCCC2
inactive: [1] 115 % of control | [12] 115 % of control | dose: 259.0 mg/kg/injection, vehicle: saline with Tween-80 106 % of control | [10] 114 % of control | dose: 432.0 mg/kg/injection, vehicle: saline with Tween-80 100 % of control | [11] 124 % of control | dose: 720.0 mg/kg/injection, vehicle: saline with Tween-80 114 % of control

NC(N)=NS(=O)(=O)c1ccc(NCc2c3ccccc3nc3ccccc23)cc1
active: dose: 600.0 mg/kg/injection, vehicle: Klucel (hydroxypropylcellulose) (HPC) 166 % of control | dose: 1200.0 mg/kg/injection, vehicle: Klucel (hydroxypropylcellulose) (HPC) 155 % of control

COc1ccc2oc3c(ccc[n+]3C)c(=O)c2c1
inactive: [3] 108 % of control | [6] 107 % of control | [4] 102 % of control | dose: 400.0 mg/kg/injection, vehicle: saline with Tween-80 101 % of control

CC(=O)C[n+]1ccc(C)cc1Sc1ccccc1C
inactive: [5] 93 % of control | [2] 99 % of control | [3] 95 % of control | [6] 88 % of control

Cc1cc(Br)c2nsnc2c1[N+](=O)[O-]
inactive: [1] 112 % of control | [12] 103 % of control | [10] 112 % of control | [11] 124 % of control | dose: 1200.0 mg/kg/injection, vehicle: saline with Tween-80 114 % of control

CC1OC2CC(O)C1(O)C1=C2C(O)=C(C(N)=O)C(=N)C1=O (stereo not drawn)
inactive: dose: 0.32 mg/kg/injection, vehicle: saline + Tween-80 + alcohol 106 % of control | dose: 0.63 mg/kg/injection, vehicle: saline + Tween-80 + alcohol 99 % of control | dose: 1.25 mg/kg/injection, vehicle: saline + Tween-80 + alcohol 106 % of control | dose: 2.5 mg/kg/injection, vehicle: saline + Tween-80 + alcohol 102 % of control | dose: 5.0 mg/kg/injection, vehicle: saline + Tween-80 + alcohol 102 % of control

C[n+]1c(-c2ccc(NC(=O)c3ccc(C(=O)Nc4ccc(-c5cn6ccccc6[n+]5C)cc4)cc3)cc2)cn2ccccc21
inactive: [5] 114 % of control | [2] 103 % of control | [3] 97 % of control

Source: PubChem BioAssay AID280 (DTP/NCI, 2004)
